Among the data in paper PMC6720600, “Discovery of Novel TASK-3 Channel Blockers Using a Pharmacophore-Based Virtual Screening” (International Journal of Molecular Sciences, 2019) are IC50 values, retold here.

Holding throughout (assay type): cell-based
One experiment concerns the target T1, TASK-3 (Homo sapiens, UniProt Q9NPC2).
T1 construct: gene KCNK9
The experiment in a line: whole-cell patch clamp, HEK-293 cells transfected with TASK-3.

Experiment [1] deals with T2, TASK-1 (Homo sapiens, UniProt O14649).
T2 construct: gene KCNK3
Description: dose-response of TASK-1 channel inhibition (electrophysiology; expression details for TASK-1 not given).

The target of experiment [2] is T2, TASK-1. Description: dose-response curve on human TASK-1 (electrophysiology; value not given).

T1 sequence (Q9NPC2 whole entry): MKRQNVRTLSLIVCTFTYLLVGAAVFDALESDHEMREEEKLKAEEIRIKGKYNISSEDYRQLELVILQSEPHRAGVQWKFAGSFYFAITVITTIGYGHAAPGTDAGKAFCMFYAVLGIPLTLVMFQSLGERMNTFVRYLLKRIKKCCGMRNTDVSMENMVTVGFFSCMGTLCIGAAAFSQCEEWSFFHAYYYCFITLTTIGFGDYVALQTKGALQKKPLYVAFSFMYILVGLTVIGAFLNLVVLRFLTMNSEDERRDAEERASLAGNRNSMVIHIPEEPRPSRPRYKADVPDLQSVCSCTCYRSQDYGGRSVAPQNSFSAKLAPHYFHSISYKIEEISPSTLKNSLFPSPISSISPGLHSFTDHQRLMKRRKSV
T2 sequence (O14649 whole entry): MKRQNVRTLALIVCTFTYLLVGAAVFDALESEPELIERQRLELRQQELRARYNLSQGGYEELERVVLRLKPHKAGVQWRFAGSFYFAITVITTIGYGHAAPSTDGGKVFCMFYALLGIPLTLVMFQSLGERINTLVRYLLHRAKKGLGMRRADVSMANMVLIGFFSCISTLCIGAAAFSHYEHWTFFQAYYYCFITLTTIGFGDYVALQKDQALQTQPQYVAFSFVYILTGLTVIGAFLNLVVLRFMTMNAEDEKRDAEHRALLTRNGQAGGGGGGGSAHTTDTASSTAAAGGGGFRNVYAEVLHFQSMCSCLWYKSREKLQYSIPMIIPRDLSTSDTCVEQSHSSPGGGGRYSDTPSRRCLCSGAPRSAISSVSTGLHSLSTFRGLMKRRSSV

With `CC(C(=O)Nc1ccc(O)cc1F)c1cc2cccc(NC(=O)c3ccc(O)cc3)c2o1` (stereo not shown) [DR16.1], the half-inhibitory concentration (IC50) against TASK-3 was 14.2 ± 3.4 µM; against TASK-1 [1], 21.2 ± 5.5 µM.

As for `CC(C(=O)Nc1ccc(O)cc1F)c1cc2ccccc2o1` (stereo not shown) [DR16], the IC50 against TASK-3 is 56.8 ± 3.9 µM; against TASK-1 [2] it was “Lead ligand DR16 blocks human TASK channels”.

As usually defined, the IC50 is the concentration at which inhibition is half-maximal. High values mean lower potency, low ones higher potency.
